Measurements: PMC10178506, “Chemical and Biological Evaluation of Novel 1H-Chromeno[3,2-c]pyridine Derivatives as MAO Inhibitors Endowed with Potential Anticancer Activity” (International Journal of Molecular Sciences, 2023)
Values joined by “and” are separate entries in the source; they are usually repeats but may differ in a detail not shown here. Identical values can stand only once. Like-named read-outs stand apart in the source and are kept apart here.

Legend:
[1] = target: T1, human recombinant MAO A (Homo sapiens, UniProt P21397); experiment: biochemical; assay type: biochemical; conditions: for Selectivity for MAO A over MAO B: from MAO A and MAO B inhibition data; for inhibition at 10 µM: read-out: hMAO-A % inhibition at 10 μM
T1 construct: purchased Sigma Aldrich (Milan, Italy); host or cells: baculovirus-infected insect cells
T1 sequence (P21397 1-527): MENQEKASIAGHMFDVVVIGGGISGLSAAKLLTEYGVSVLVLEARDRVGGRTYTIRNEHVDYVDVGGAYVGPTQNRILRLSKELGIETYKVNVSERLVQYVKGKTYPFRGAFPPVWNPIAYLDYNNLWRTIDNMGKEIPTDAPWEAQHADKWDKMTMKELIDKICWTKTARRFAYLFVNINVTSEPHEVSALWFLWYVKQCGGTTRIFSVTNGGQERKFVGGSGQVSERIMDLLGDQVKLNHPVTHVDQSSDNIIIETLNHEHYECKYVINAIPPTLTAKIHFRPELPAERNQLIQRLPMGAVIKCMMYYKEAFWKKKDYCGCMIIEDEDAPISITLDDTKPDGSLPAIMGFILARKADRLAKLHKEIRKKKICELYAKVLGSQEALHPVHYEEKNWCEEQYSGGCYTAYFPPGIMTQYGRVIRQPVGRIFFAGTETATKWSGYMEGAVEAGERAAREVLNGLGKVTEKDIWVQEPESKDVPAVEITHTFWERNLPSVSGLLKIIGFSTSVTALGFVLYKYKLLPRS
Experimental: (§1) Human isoforms of MAOs (from baculovirus-infected insect cells) and ChEs (human recombinant AChE and BChE from human serum), purchased from Sigma Aldrich (Milan, Italy), were used for inhibition assays. Experiments were performed in 96-well plates (Greiner Bio-One, Kremsmünster, Austria) on the Infinite M1000 Pro plate reader (Tecan, Cernusco s.N., Italy), using already published protocols.
After the addition of human recombinant MAO A (250 U/mg) or MAO B (59 U/mg) and a further 30 min of incubation, NaOH was added, and the fluorescence read at 310/400 nm excitation/emission wavelength. […] IC50 is expressed as mean ± SD of three independent measurements, each one performed in duplicate. For the kinetic study on the inhibition mechanism of MAO B, three diverse scalar concentrations of the inhibitor and seven concentrations of kynuramine were used.
(§2) The IC50 values, Michaelis–Menten curve fitting and inhibition constant (Ki) were calculated by nonlinear regression, using Prism software.

[2] = target: T2, human recombinant MAO B (Homo sapiens, UniProt P27338); experiment: biochemical; assay type: biochemical; conditions: for inhibition at 10 µM: read-out: hMAO-B % inhibition at 10 μM; for IC50: hMAO-B IC50, mean ± S.D., determined for compounds with more than 60% inhibition at 10 μM; for MAO B inhibition mechanism: Michaelis-Menten curves' fitting, kynuramine as the substrate
T2 construct: purchased Sigma Aldrich (Milan, Italy); host or cells: baculovirus-infected insect cells
T2 sequence (P27338 1-520): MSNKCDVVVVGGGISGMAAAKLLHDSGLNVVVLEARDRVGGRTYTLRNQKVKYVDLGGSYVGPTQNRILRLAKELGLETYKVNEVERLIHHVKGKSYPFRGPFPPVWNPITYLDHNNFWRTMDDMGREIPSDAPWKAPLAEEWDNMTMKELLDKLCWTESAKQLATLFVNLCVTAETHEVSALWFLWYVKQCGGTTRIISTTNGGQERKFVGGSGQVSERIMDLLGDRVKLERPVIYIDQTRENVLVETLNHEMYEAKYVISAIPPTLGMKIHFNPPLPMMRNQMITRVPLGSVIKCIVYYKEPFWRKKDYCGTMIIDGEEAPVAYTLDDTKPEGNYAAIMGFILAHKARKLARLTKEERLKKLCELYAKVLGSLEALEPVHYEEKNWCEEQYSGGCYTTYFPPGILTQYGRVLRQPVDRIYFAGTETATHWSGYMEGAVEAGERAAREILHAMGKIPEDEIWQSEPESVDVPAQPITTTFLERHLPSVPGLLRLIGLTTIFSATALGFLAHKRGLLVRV

[3] = target: T3, BChE from human serum (Homo sapiens, UniProt P06276); experiment: biochemical; conditions: 10 μM concentration, mean ± S.D. (n = 3), n.i. = no inhibition at 10 μM; for inhibition at 10 µM: read-out: hBChE % inhibition at 10 μM
T3 construct: ChEs (human recombinant AChE and BChE from human serum), purchased from Sigma Aldrich (Milan, Italy); purchased Sigma Aldrich (Milan, Italy); host or cells: human serum (natural source)
Experimental: as §1
(§3) The inhibition of human recombinant AChE or BChE from human serum was determined by applying Ellman’s spectrophotometric method as described in previously reported protocols. The AChE activity was determined in an assay solution containing AChE (0.09 U/mL), 5,5′-dithiobis(2-nitrobenzoic acid) (i.e., the Ellman’s reagent, 0.33 mM), the test compound (10 μM concentration, or seven scalar concentrations for compounds achieving > 60% enzyme inhibition at 10 μM), in 0.1 M PBS pH 8.0. […] The BChE inhibitory activity was similarly determined by using BChE (0.09 U/mL) and butyrylthiocholine iodide (5 μM) as the substrate.
as §2

[4] = target: T4, human recombinant AChE (Homo sapiens, UniProt P22303); experiment: biochemical; conditions: for inhibition at 10 µM: read-out: hAChE % inhibition at 10 μM
T4 construct: purchased Sigma Aldrich (Milan, Italy)
Experimental: as §1, §3, §2

[5] = tested on: MCF-7, human breast carcinoma cell; experiment: Antiproliferative activity, sulforhodamine-B (SRB) assay, MCF-7; assay type: cell-based; conditions: read-out: Antiproliferative activity IC50, MCF-7
Experimental: (§4) The SK-OV-3 ovarian cancer cell line, MCF-7 breast cancer line and HCT-116 colon cancer cell line were obtained from the National Cancer Institute, Biological Testing Branch (Frederick, MD, USA), and maintained in the logarithmic phase at 37 °C in a 5% CO2 humidified air in RPMI 1640 medium supplemented with 10% fetal calf serum, 2 mM glutamine, penicillin (100 U/mL) and streptomycin (0.1 mg/mL).
(§5) The growth inhibitory effects of compounds under investigation were compared to those of cisplatin (CDDP) and doxorubicin (DXR), used as positive controls, and evaluated by using the sulforhodamine-B (SRB) assay. Briefly, cells were seeded into 96-well microtiter plates in 100 µL of the appropriate culture medium at plating densities at 2500, 5000 and 8000 cells/well for MCF-7, HCT-116 and SKOV-3, respectively, depending upon the doubling time of individual cell lines. After seeding, microtiter plates were incubated at 37 °C for 24 h before adding the test compounds. After 24 h, several samples of each cell line were fixed in situ with cold trichloroacetic acid (TCA) to represent a measurement of the cell population at the time of compound addition. The test compounds were freshly dissolved in dimethyl sulfoxide (DMSO, 10^−2 M) and gradually diluted to different concentrations (0.79–50 µM) with a complete medium, so that the maximum DMSO/well ratio was 0.5% v/v. After the addition of different compound concentrations to triplicate wells, the plates were further incubated at 37 °C for 72 h. Cells were fixed in situ by the gentle addition of 50 µL of cold 50% w/v TCA (final concentration 10%) and incubated for 1 h at 4 °C. The supernatant was discarded, and the plates were washed with tap water and air-dried. SRB solution (100 µL) at 0.4% (w/v) in 1% acetic acid was added to each well, and the plates were incubated for 30 min at room temperature. After staining, the unbound dye was removed by washing with 1% acetic acid and the plates were air-dried. The bound stain was then solubilized with 10mM Trizma base and the absorbance was read on an automatic plate reader at 570 nm.

[6] = tested on: SK-OV-3, human ovarian carcinoma with intrinsic resistance to cisplatin; experiment: Antiproliferative activity, sulforhodamine-B (SRB) assay, SK-OV-3; assay type: cell-based; conditions: read-out: Antiproliferative activity IC50, SK-OV-3
Experimental: as §4, §5

[7] = tested on: HCT116, colon cancer cell line; experiment: Antiproliferative activity, sulforhodamine-B (SRB) assay, HCT116; assay type: cell-based, human; conditions: read-out: Antiproliferative activity IC50, HCT116
Experimental: as §4, §5

[8] = Homo sapiens, MCF7, 72 h exposure, SRB assay, mean ± S.D., >50 = less than 50% growth inhibition at 50 μM
[9] = Homo sapiens, HCT-116, 72 h exposure, SRB assay, mean ± S.D., >50 = less than 50% growth inhibition at 50 μM
[10] = Homo sapiens, SK-OV-3, 72 h, 72 h exposure, SRB assay, mean ± S.D., >50 = less than 50% growth inhibition at 50 μM
[11] = 72 h exposure, SRB assay, mean ± S.D., >50 = less than 50% growth inhibition at 50 μM

T3 sequence (P06276 29-602): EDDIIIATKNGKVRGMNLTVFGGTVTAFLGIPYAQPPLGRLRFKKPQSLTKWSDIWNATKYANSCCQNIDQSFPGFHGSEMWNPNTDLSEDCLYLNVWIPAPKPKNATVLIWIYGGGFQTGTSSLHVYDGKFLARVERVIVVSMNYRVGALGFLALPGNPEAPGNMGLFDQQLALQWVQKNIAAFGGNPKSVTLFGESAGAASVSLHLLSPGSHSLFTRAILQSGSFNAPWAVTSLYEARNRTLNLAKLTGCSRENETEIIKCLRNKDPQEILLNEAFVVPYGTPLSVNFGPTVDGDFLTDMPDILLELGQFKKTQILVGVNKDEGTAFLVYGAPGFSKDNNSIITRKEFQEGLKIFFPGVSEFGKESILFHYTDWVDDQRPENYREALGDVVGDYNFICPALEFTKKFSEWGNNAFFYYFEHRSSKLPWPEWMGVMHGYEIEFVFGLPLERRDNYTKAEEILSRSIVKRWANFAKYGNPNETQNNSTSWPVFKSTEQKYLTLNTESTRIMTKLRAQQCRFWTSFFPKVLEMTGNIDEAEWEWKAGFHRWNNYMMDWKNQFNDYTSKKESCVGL
T4 sequence (P22303 32-614): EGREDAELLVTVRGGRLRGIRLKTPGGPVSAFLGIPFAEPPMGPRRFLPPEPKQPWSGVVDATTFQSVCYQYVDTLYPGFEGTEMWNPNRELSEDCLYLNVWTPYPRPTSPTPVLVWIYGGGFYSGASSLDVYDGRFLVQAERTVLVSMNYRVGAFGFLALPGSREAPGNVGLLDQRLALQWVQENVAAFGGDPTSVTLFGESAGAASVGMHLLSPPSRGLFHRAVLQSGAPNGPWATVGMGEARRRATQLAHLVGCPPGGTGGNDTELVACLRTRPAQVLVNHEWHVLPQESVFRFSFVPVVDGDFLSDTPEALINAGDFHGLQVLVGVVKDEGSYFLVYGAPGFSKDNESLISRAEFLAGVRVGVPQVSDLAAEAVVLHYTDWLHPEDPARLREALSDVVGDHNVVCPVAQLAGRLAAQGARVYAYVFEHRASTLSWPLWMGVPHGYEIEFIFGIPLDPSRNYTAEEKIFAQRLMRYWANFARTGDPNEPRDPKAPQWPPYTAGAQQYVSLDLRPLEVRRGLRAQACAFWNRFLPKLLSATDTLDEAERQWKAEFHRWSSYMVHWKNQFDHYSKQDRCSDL

melting point [°C]	SMILES	inhibition at 10 µM [4] [%]	inhibition at 10 µM [1] [%]	IC50 [2]	inhibition at 10 µM [3] [%]	IC50 [5, 8] [µM]	IC50 [7, 9] [µM]	IC50 [6, 10] [µM]	further results
148 to 149	COc1cccc2c1O[C@]1(O)CCN(C)C[C@H]1[C@@H]2O	–	–	–	–	–	–	–	–
–	CN1CC=C2Oc3ccc(Cl)cc3C=C2C1 [2a, 8-Chloro-2,3-dihydro-2-methyl-1H-chromeno[3,2-c]pyridine]	25	–	–	–	–	–	–	IC50 [1]: 1.18 ± 0.07 µM; Selectivity for MAO A over MAO B [1]: about tenfold; inhibition at 10 µM [2]: 45%; hBChE % inhibition at 10 μM [3]: n.i.; IC50 ([5]; Homo sapiens, MCF7, 72 h): 48.1 ± 4.21 µM; IC50 ([6]; Homo sapiens, SK-OV-3, 72 h): > 50 µM
158 to 159	CN1CC[C@@]2(O)Oc3ccc([N+](=O)[O-])cc3[C@@H](O)[C@H]2C1	–	–	–	–	–	–	–	–
140 to 142	CN1CCC2=C(C1)C(C[N+](=O)[O-])c1cc(Br)ccc1O2 (centres unmarked)	–	–	–	–	–	–	–	–
–	COc1ccc2[nH]cc(C3C4=C(CCN(C)C4)Oc4ccc(Cl)cc43)c2c1 (centres unmarked) [6b, 8-Chloro-10-(5-metoxy-1H-indole-3-yl)-2-methyl-2,3,4,10-tetrahydro-1H-chromeno[3,2-c]pyridine]	53	21	4.72 ± 0.1 µM	15	6.62 ± 2.7	18.6 ± 2.22	22.3 ± 1.42	–
–	COc1cccc2c(=O)c3c(oc12)C=CN(C)C3C#Cc1ccccc1 (centres unmarked) [3b, 6-Metoxy-2-methyl-1-(phenylethinyl)-1H-chromeno[3,2-c]pyridine-10(2H)-one]	39	32	0.63 µM and 0.626 µM	19	39.7 ± 11.3	36.1 ± 2.1	> 50	Ki [2]: 1.41 ± 0.21 µM; MAO B inhibition mechanism [2]: competitive; MAO B/A selectivity ([2]; from MAO B and MAO A inhibition data): more than twentyfold
–	CCN1C=Cc2oc3ccccc3c(=O)c2C1C#CC(F)(F)F (centres unmarked) [3c, 2-Ethyl-1-(3,3,3-trifluoroprop-1-yn-1-yl)-1,2-dihydro-10H-chromeno[3,2-c]pyridin-10-one]	–	20	–	15	27.8 ± 9.6	47.2 ± 5.42	> 50	inhibition at 10 µM [2]: 26%; hAChE % inhibition at 10 μM [4]: n.i.
–	CN1CC=C2Oc3ccc(Br)cc3C=C2C1 [2b, 8-Bromo-2,3-dihydro-2-methyl-1H-chromeno[3,2-c]pyridine]	31	–	7.88 ± 0.02 µM	–	–	–	–	IC50 [1]: 0.703 ± 0.012 µM; Selectivity for MAO A over MAO B [1]: about tenfold; hBChE % inhibition at 10 μM [3]: n.i.; IC50 ([5]; Homo sapiens, MCF7, 72 h): 42.9 ± 4.82 µM; IC50 ([7]; Homo sapiens, HCT-116, 72 h): > 50 µM; IC50 ([6]; Homo sapiens, SK-OV-3, 72 h): > 50 µM
–	COc1cccc2c1C(=O)c1c(O)c3c(c(O)c1C2=O)C[C@@](O)(C(=O)CO)C[C@@H]3O[C@H]1C[C@H](N)[C@H](O)[C@H](C)O1 [Doxorubicin, doxorubicin, reference compound]	–	–	–	–	0.18 ± 0.02	0.38 ± 0.03	2.2 ± 0.02	–
–	CN1CCC2=C(C1)C(c1c[nH]c3ccccc13)c1cc(Cl)ccc1O2 (centres unmarked) [6a, 8-Chloro-10-(1H-indole-3-yl)-2-methyl-2,3,4,10-tetrahydro-1H-chromeno[3,2-c]pyridine]	53	21	7.3 ± 0.65 µM	38	4.8 ± 0.81	8.62 ± 2.21	14.7 ± 2.81	–
172 to 173	CN1CC[C@@]2(O)Oc3ccc(Cl)cc3[C@@H](O)[C@H]2C1	–	–	–	–	–	–	–	–
–	CN1CCC2=C(C1)C(c1c[nH]c3ccc(Br)cc13)c1cc(Cl)ccc1O2 (centres unmarked) [6c, 8-Chloro-10-(5-bromo-1H-indole-3-yl)-2-methyl-2,3,4,10-tetrahydro-1H-chromeno[3,2-c]pyridine]	37	29	3.51 ± 0.2 µM	23	4.83 ± 0.79	9.4 ± 0.22	11	Ki [2]: 6.47 ± 0.22 µM; MAO B inhibition mechanism [2]: competitive; IC50 [6, 11]: 11.3 ± 0.32 µM
–	N.N.[Cl][Pt][Cl] [Cisplatin, reference compound]	–	–	–	–	–	–	–	IC50 [5, 11]: 4.8 ± 2.2 µM; IC50 [7, 11]: 5.02 ± 2.12 µM; IC50 [6, 11]: 4.43 ± 0.32 µM
134 to 135	COc1cccc2c1O[C@]1(O)CCN(C)C[C@@H]1[C@@H]2O	–	–	–	–	–	–	–	–
167 to 168	CN1CC[C@@]2(O)Oc3ccc(Cl)cc3[C@@H](O)[C@@H]2C1	–	–	–	–	–	–	–	–
